What was measured:
[1] = target: T1, human α1D‐adrenoceptor (full length) (Homo sapiens, UniProt P25100); test: ERK1/2‐phosphorylation (Surefire Alphascreen), CHO‐α1D cells; assay type: cell-based; conditions: CHO‐α1D cells; for EC50: log values given negative, read-out: ERK1/2‐phosphorylation Log EC50 (converted); for ERK1/2‐phosphorylation % PDBu: maximal response as % of PDBu
T1 construct: human α1D‐adrenoceptor (full length) were used; expressed in transfected cells; host or cells: CHO-K1
T1 sequence (P25100 1-572): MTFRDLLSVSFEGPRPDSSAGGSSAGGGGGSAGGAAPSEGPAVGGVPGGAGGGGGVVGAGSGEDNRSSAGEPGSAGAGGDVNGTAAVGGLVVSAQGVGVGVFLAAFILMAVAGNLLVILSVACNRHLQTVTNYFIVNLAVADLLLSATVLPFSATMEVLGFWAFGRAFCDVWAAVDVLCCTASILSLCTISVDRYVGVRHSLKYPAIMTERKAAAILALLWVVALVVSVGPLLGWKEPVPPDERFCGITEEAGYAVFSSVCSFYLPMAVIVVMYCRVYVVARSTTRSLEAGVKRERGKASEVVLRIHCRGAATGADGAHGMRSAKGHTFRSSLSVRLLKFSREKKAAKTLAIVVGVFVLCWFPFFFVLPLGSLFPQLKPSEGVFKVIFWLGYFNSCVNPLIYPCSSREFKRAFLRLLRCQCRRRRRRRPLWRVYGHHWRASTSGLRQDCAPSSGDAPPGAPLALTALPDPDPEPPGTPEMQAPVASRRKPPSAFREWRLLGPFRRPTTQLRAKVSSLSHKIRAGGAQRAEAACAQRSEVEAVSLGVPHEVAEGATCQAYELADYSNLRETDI

[2] = tested on: parental CHO cell line without any transfected receptors; test: Forskolin‐stimulated cAMP accumulation, parent CHO cells without transfected receptors; assay type: cell-based, Chinese hamster; conditions: CHO cells without transfected receptors
[3] = target: T1, human α1D‐adrenoceptor (full length); test: ^3H‐prazosin whole‐cell radioligand binding, CHO‐α1D cells; conditions: for Kd: CHO‐α1D cells; for Affinity selectivity ratio α1B vs α1D: higher affinity for α1D than α1B
[4] = target: T1, human α1D‐adrenoceptor (full length); test: Intracellular free calcium mobilization, CHO‐α1D cells; assay type: cell-based; conditions: CHO‐α1D cells; for Log efficacy ratio KD /EC50: intrinsic efficacy ratio, binding KD / calcium EC50; for Intracellular calcium release % ionomycin: maximal response as % of 10 µM ionomycin
human α1A‐adrenoceptor [5] = target: T2, human α1A‐adrenoceptor (Homo sapiens, UniProt P35348); test: ^3H‐cAMP accumulation, CHO‐α1A cells; assay type: cell-based; conditions: CHO‐α1A cells; for EC50: 5 h, read-out: cAMP accumulation Log EC50 (converted); for cAMP accumulation % forskolin: % of 10 µM forskolin response
T2 construct: expressed in transfected cells; host or cells: CHO-K1
T2 sequence (P35348 1-466): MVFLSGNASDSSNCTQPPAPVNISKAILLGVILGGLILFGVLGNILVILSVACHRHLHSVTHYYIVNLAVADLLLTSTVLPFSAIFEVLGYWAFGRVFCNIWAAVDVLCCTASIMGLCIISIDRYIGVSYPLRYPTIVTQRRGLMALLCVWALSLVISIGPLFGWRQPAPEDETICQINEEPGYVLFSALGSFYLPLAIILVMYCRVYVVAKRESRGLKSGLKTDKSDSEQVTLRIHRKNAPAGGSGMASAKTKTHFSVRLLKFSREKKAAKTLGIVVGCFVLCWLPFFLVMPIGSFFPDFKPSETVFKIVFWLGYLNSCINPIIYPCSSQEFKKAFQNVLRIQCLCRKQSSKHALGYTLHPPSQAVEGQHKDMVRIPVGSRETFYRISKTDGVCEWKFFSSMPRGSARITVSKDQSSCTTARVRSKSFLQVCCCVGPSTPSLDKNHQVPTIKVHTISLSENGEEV

human α1A‐adrenoceptor [6] = target: T2, human α1A‐adrenoceptor; test: ^3H‐cAMP accumulation in the presence of 10 μM forskolin, CHO‐α1A cells; assay type: cell-based; conditions: CHO‐α1A cells; for EC50: 10 μM forskolin, read-out: cAMP accumulation (in presence of forskolin) Log EC50 (converted); for cAMP accumulation (in presence of forskolin) Fold increase: fold increase of the forskolin response
human α1B‐adrenoceptor [7] = target: T3, human α1B‐adrenoceptor (Homo sapiens, UniProt P35368); test: ^3H‐cAMP accumulation in the presence of 10 μM forskolin, CHO‐α1B cells; assay type: cell-based; conditions: CHO‐α1B cells; for cAMP accumulation (in presence of forskolin) Fold increase: fold increase of the forskolin response; for EC50: in presence of forskolin, read-out: cAMP accumulation (in presence of forskolin) Log EC50 (converted)
T3 construct: expressed in transfected cells; host or cells: CHO-K1
T3 sequence (P35368 1-520): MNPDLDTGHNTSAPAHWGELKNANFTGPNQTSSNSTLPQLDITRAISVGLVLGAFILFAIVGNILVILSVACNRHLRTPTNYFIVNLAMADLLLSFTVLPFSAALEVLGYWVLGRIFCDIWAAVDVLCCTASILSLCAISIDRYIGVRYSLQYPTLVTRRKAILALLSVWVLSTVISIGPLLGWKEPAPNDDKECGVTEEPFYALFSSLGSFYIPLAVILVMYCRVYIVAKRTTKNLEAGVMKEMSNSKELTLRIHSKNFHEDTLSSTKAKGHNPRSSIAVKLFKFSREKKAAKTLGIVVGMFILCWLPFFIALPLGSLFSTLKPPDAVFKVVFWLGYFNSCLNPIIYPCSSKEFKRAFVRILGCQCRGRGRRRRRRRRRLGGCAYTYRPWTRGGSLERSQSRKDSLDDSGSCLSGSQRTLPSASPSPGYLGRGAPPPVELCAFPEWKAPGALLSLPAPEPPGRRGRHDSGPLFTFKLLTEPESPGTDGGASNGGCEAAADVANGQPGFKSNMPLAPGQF

human α1A‐adrenoceptor [8] = target: T2, human α1A‐adrenoceptor; test: ERK1/2‐phosphorylation (Surefire Alphascreen), CHO‐α1A cells; assay type: cell-based; conditions: CHO‐α1A cells, ^a bi‐phasic: initial stimulatory part; for EC50: 2–4 min, ^b also active in parent CHO cells, read-out: ERK1/2‐phosphorylation Log EC50 (converted); for ERK1/2‐phosphorylation % PDBu: % of 10 µM PDBu
[9] = target: T1, human α1D‐adrenoceptor (full length); test: ^3H‐cAMP accumulation in the presence of 10 μM forskolin, CHO‐α1D cells; assay type: cell-based; conditions: CHO‐α1D cells; for cAMP (in presence of forskolin) Fold increase: fold increase of the forskolin response
[10] = tested on: parental CHO cell line without any transfected receptors; test: ERK1/2‐phosphorylation, parent CHO cells without transfected receptors; assay type: cell-based, Chinese hamster
human α1B‐adrenoceptor [11] = target: T3, human α1B‐adrenoceptor; test: Intracellular free calcium mobilization, CHO‐α1B cells; assay type: cell-based; conditions: CHO‐α1B cells; for EC50: given as log EC50 (negative numbers), read-out: Intracellular calcium release Log EC50 (converted); for Log efficacy ratio KD /EC50: intrinsic efficacy ratio, KD from binding / EC50 calcium; for Intracellular calcium release % ionomycin: maximal response as % of 10 µM ionomycin response
human α1B‐adrenoceptor [12] = target: T3, human α1B‐adrenoceptor; test: ^3H‐prazosin whole‐cell radioligand binding, CHO‐α1B cells; conditions: CHO‐α1B cells
[13] = target: T1, human α1D‐adrenoceptor (full length); test: ^3H‐cAMP accumulation, CHO‐α1D cells; assay type: cell-based; conditions: cAMP accumulation without forskolin
[14] = in presence of forskolin, log values given negative

Row | Structure (SMILES) | EC50 [1] | ERK1/2‐phosphorylation % PDBu [1] | Affinity selectivity ratio α1B vs α1D [3] | Log efficacy ratio KD /EC50 [4] | Intracellular calcium release % ionomycin [4] | EC50 (human α1A‐adrenoceptor [5]) | cAMP accumulation % forskolin (human α1A‐adrenoceptor [5]) | EC50 (human α1A‐adrenoceptor [6]) | cAMP accumulation (in presence of forskolin) Fold increase (human α1A‐adrenoceptor [6]) | cAMP accumulation (in presence of forskolin) Fold increase (human α1B‐adrenoceptor [7]) | EC50 (human α1B‐adrenoceptor [7]) | EC50 (human α1A‐adrenoceptor [8]) | ERK1/2‐phosphorylation % PDBu (human α1A‐adrenoceptor [8]) | cAMP (in presence of forskolin) Fold increase [9] | EC50 (human α1B‐adrenoceptor [11]) | Log efficacy ratio KD /EC50 (human α1B‐adrenoceptor [11]) | Intracellular calcium release % ionomycin (human α1B‐adrenoceptor [11]) | cAMP Log EC50 [13] | further results
1 | c1ccc(C2CC2)c(OCC2=NCCN2)c1 [Cirazoline] | 3.8 µM | 36.5 ± 3.2% | 2.7 fold | 1.37 | 17.3 ± 3.8% | 0.123 µM | 108.9 ± 6.5% | 0.0107 µM | 2.38 ± 0.15 fold | 2.09 ± 0.13 fold | 0.0398 µM | 0.000955 µM | 80.8 ± 3.6% | No response | 0.00891 µM | 2.95 | 53.3 ± 1.5% | No response | cAMP accumulation (in presence of forskolin) % forskolin-stim cAMP at 100μM ([2]; response at 100μM only, EC50 not obtainable, % of forskolin-stimulated cAMP): 82.4 ± 2.8%; Kd ([3]; given as log KD (negative), mean ± SEM, 'early plateau' = specific binding not fully inhibited): 2.95 µM; Intracellular calcium release Log EC50 ([4]; log values given negative): −6.90 ± 0.09; cAMP (in presence of forskolin) Log EC50 [9, 14]: No response; Emax at 100 µM ([10]; Cricetulus griseus, CHO, read-out: ERK1/2-phosphorylation % PDBu at 100μM): 33.4 ± 7.6%; Kd (human α1B‐adrenoceptor [12]; given as log KD (negative), mean ± SEM): 7.94 µM
2 | COc1ccc(OC)c(C(O)C(C)N)c1 (centres unmarked) [Methoxamine] | 8.32 µM | 14.2 ± 3.9% | >6.6 fold | 1.56 | 22.6 ± 4.7% | 4.9 µM | 120.0 ± 3.7% | 0.398 µM | 2.19 ± 0.09 fold | 2.42 ± 0.05 fold | 6.92 µM | 0.0275 µM | 81.4 ± 4.5% | 1.21 ± 0.04 | 0.229 µM | >3.64 | 59.1 ± 3.2% | No response | cAMP accumulation (in presence of forskolin) Log EC50 ([2]; in presence of forskolin): No response; Kd ([3]; 3H‐prazosin binding Log KD, whole‐cell binding (from Table 1), log values given negative): 151 µM; Kd ([3]; Log KD α1D, ^3H‐prazosin whole cell binding, given as log KD (negative), mean ± SEM, 'early plateau' = specific binding not fully inhibited): 151 µM; EC50 ([4]; log values given negative, read-out: Intracellular calcium release Log EC50 (converted)): 4.17 µM; EC50 [9, 14]: 10.5 µM; ERK1/2-phosphorylation % PDBu ([10]; CHO cells without transfected receptors, maximal response as % of PDBu (10μM) response, mean ± s.e.m.): No response; ERK1/2-phosphorylation Log EC50 ([10]; CHO cells without transfected receptors, mean ± s.e.m.): No response; IC50 (human α1B‐adrenoceptor [12]; printed as IC50> log value): > 1000 µM

Source: publication PMC8343220, “The selectivity of α‐adrenoceptor agonists for the human α1A, α1B, and α1D‐adrenoceptors” (Pharmacology Research & Perspectives, 2021)
